{"source": "ChEMBL document CHEMBL4400514", "about": "“Medicinal chemistry of metal chelating fragments in metalloenzyme active sites: A perspective” (Eur J Med Chem, 2019)", "note": "pIC50: −log10 of the molar value."}
{"target": "T1, Deoxyhypusine hydroxylase (Plasmodium falciparum (isolate 3D7)) (UniProt Q8I701)", "T1 sequence (whole entry)": "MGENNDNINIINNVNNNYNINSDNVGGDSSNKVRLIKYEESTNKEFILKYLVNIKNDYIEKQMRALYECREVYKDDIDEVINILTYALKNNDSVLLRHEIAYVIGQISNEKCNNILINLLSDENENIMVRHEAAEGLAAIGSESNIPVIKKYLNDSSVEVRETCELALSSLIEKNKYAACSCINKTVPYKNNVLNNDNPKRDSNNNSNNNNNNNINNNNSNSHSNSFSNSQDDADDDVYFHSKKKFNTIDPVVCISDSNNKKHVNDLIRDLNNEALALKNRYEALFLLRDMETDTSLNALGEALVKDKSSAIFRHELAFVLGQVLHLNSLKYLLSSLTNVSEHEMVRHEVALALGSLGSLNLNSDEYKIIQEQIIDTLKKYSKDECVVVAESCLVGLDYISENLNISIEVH", "experiment": "Inhibition of Plasmodium falciparum DOHH expressed in Escherichia coli BL21 cells at 1 mM after 24 hrs by GC/MS analysis relative to control", "units": {"inhibition": "%"}}
{"smiles": "CCOc1ccc(-c2nonc2NC(=O)c2cccc(C)c2)cc1OCC", "inhibition": 43.3}
{"smiles": "COc1ccc(-c2nc3cc(Cc4ccc5[nH]c(-c6ccc(OC)cc6)nc5c4)ccc3[nH]2)cc1", "inhibition": 38.8}
{"smiles": "c1ccc(Cn2c(/N=N/c3c(Nc4ccccc4)ccc4ccccc34)nc3ccccc32)cc1", "inhibition": 35.9}
{"target": "T2, Deoxyhypusine hydroxylase (Homo sapiens, UniProt Q9BU89)", "T2 sequence (Q9BU89 whole entry)": "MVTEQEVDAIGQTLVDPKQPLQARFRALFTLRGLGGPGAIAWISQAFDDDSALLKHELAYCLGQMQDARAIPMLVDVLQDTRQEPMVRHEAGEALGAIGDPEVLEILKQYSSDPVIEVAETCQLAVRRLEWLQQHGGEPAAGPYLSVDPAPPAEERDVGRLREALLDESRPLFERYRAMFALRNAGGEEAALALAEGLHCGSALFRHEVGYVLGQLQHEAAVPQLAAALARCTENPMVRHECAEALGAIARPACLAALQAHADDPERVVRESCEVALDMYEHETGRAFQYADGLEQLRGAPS", "experiment": "Inhibition of DOHH (unknown origin)"}
{"smiles": "Cc1cc(C2CCCCC2)n(O)c(=O)c1", "note": "[CICLOPIROX]", "pIC50": "3.70 to 5.30"}
{"smiles": "Cc1c(O)c(=O)ccn1C", "note": "[DEFERIPRONE]", "pIC50": "3.70 to 5.30"}
{"smiles": "CC(=O)N(O)CCCCCNC(=O)CCC(=O)N(O)CCCCCNC(=O)CCC(=O)N(O)CCCCCN", "note": "[DEFEROXAMINE]", "pIC50": "3.70 to 5.30"}
{"smiles": "c1ccc(-c2ccccn2)nc1", "note": "[DIPYRIDYL]", "pIC50": "3.70 to 5.30"}
{"smiles": "N[C@@H](Cn1ccc(=O)c(O)c1)C(=O)O", "note": "[L-MIMOSINE]", "pIC50": "3.70 to 5.30"}
